Measurements taken from patent publication US20210054047A1, “NOVEL ANTICANCER FUSION PROTEIN AND USE THEREOF” (KOREA INSTITUTE OF SCIENCE AND TECHNOLOGY, priority 2018, published 2021).

Test system: TRAIL receptors on the surface of HepG2 cells
Assay: Cell binding by flow cytometry
Assay type: cell-based, human
Procedure: TRAIL receptor expression was evaluated on various cell surfaces. Specifically, HepG2, HT29, and HEK293T cells (2×10^5) were cultured with four types of anti-human TRAIL receptor antibodies (R&D system, MAB347, MAB6311, MAB6301, MAB633). […] Nanocage bound cells were detected with an Accuri™ C6 flow cytometer (BD Biosciences) and analyzed using FlowJo_V10 software (FlowJo). The binding specificity of TTPN to TRAIL receptor was analyzed by blocking experiments by pre-culture of anti-human TRAIL receptor antibodies and cells at 4° C. for 20 minutes. […] Thereafter, the cells were fixed with 4% paraformaldehyde and stained with Hoechst 33258 before analysis for cell binding detection in a fluorescence microscope (Nikon Eclipse Ti, Nikon). Data were analyzed using LAS AF Lite software (Leica).

Substance: TTPN: protein nanocage presenting TRAIL as natural-like homo-trimers; TRAIL 95-281 fused by linker peptide to human ferritin heavy chain
- binding on the surface of HepG2 cells (400 nM, 4° C., 20 minutes): greater effect than wtFTN
- binding after pre-incubation with four anti-TRAIL receptor antibodies (HepG2, 400 nM): reduced
